Test results reported in ChEMBL document CHEMBL4229334, “Fluoroquinolone derivatives and their anti-tubercular activities” (Eur J Med Chem, 2018).
≈ marks a conversion by molar mass, not a printed value.

Key:
[1] = test system: Mycobacterium tuberculosis; assay: Antibacterial activity against Mycobacterium tuberculosis H37Rv after 7 days by two fold dilution assay; format: functional; details: 168 h
[2] = test system: Mycobacterium tuberculosis; assay: Antitubercular activity against Mycobacterium tuberculosis H37Rv after 21 days by broth dilution assay; format: functional; details: 504 h
[3] = test system: Mycobacterium xenopi; assay: Antibacterial activity against Mycobacterium xenopi after 7 days by two fold dilution assay; format: functional; details: 168 h
[4] = Cytotoxicity against African green monkey Vero cells after 72 hrs by MTT assay; format: cell-based; details: chlorocebus sabaeus
[5] = test system: Mycobacterium intracellulare; assay: Antibacterial activity against Mycobacterium intracellulare after 7 days by two fold dilution assay; format: functional; details: 168 h
[6] = test system: Mycobacteroides chelonae; assay: Antibacterial activity against Mycobacterium chelonae after 7 days by two fold dilution assay; format: functional; details: 168 h
[7] = test system: Mycolicibacterium smegmatis; assay: Antibacterial activity against Mycobacterium smegmatis after 7 days by two fold dilution assay; format: functional; details: 168 h
[8] = test system: Mycolicibacterium smegmatis; assay: Antitubercular activity against Mycobacterium smegmatis CMCC 93202 after 72 hrs; format: functional; details: CMCC 93202, 72 h
[9] = test system: Mycolicibacterium smegmatis; assay: Potency index, ratio of MIC for CPFX to MIC for test compound for antitubercular activity against Mycobacterium smegmatis CMCC 93202 after 72 hrs; format: functional
[10] = test system: Mycolicibacterium smegmatis; assay: Potency index, ratio of MIC for 8-OMe CPFX to MIC for test compound for antitubercular activity against Mycobacterium smegmatis CMCC 93202 after 72 hrs; format: functional
[11] = test system: Mycolicibacterium smegmatis; assay: Potency index, ratio of MIC for MXFX to MIC for test compound for antitubercular activity against Mycobacterium smegmatis CMCC 93202 after 72 hrs; format: functional
[12] = test system: Mycolicibacterium smegmatis; assay: Potency index, ratio of MIC for rifampicin to MIC for test compound for antitubercular activity against Mycobacterium smegmatis CMCC 93202 after 72 hrs; format: functional
[13] = Cytotoxicity against African green monkey Vero cells after 96 hrs by MTT assay; format: cell-based; details: chlorocebus sabaeus
[14] = Selectivity index, ratio of IC50 for African green monkey Vero cells to MIC for Mycobacterium tuberculosis H37Rv; format: toxicity
[15] = test system: Corynebacterium; assay: Antibacterial activity against Corynebacterium ATCC-29355 after 18 hrs by broth microdilution assay; format: functional; details: ATCC-29355, 18 h
[16] = test system: Corynebacterium; assay: Antibacterial activity against Corynebacterium ATCC-25365 after 18 hrs by broth microdilution assay; format: functional; details: ATCC-25365, 18 h
[17] = test system: Staphylococcus aureus; assay: Antibacterial activity against Staphylococcus aureus after 18 hrs by broth microdilution assay; format: functional
[18] = test system: Mycolicibacterium smegmatis; assay: Potency index, ratio of MIC for SPFX to MIC for test compound for antibacterial activity against Mycobacterium smegmatis by NCCLS method; format: functional
[19] = test system: Mycolicibacterium fortuitum; assay: Antitubercular activity against Mycobacterium fortuitum ATCC 6841 by NCCLS method; format: functional
[20] = test system: Mycolicibacterium fortuitum; assay: Potency index, ratio of MIC for SPFX to MIC for test compound for antitubercular activity against Mycobacterium fortuitum ATCC 6841 by NCCLS method; format: functional
[21] = test system: Mycolicibacterium smegmatis; assay: Antibacterial activity against Mycobacterium smegmatis by NCCLS method; format: functional
[22] = test system: Mycobacterium tuberculosis; assay: Antitubercular activity against replicating Mycobacterium tuberculosis H37Rv by Alamar Blue assay; format: functional
[23] = test system: Mycobacterium tuberculosis; assay: Antitubercular activity against non-replicating Mycobacterium tuberculosis H37Rv after 10 days by low oxygen recovery assay; format: functional; details: 240 h
[24] = test system: Mycobacterium avium; assay: Antitubercular activity against Mycobacterium avium; format: functional
[25] = test system: Mycolicibacterium smegmatis; assay: Antitubercular activity against Mycobacterium smegmatis after 30 to 32 hrs; format: functional
[26] = test system: Mycobacterium tuberculosis; assay: Antitubercular activity against Mycobacterium tuberculosis H37Rv by serial dilution assay; format: functional
[27] = test system: Mycobacterium tuberculosis; assay: Potency index, ratio of MIC for MXFX to MIC for test compound for antitubercular activity against non-replicating Mycobacterium tuberculosis H37Rv after 10 days by low oxygen recovery assay; format: functional
[28] = test system: Mycobacterium tuberculosis; assay: Potency index, ratio of MIC for LVFX to MIC for test compound for antitubercular activity against rifampicin-sensitive Mycobacterium tuberculosis after 21 days by two fold agar dilution method; format: functional
[29] = test system: Mycobacterium intracellulare; assay: Antitubercular activity against Mycobacterium intracellulare after 14 days by two fold agar dilution method; format: functional; details: 336 h
[30] = test system: Mycobacterium avium; assay: Potency index, ratio of MIC for GTFX to MIC for test compound for antitubercular activity against Mycobacterium avium after 14 days by two fold agar dilution method; format: functional
[31] = test system: Mycobacterium intracellulare; assay: Potency index, ratio of MIC for GTFX to MIC for test compound for antitubercular activity against Mycobacterium intracellulare after 14 days by two fold agar dilution method; format: functional
[32] = test system: Mycobacterium avium; assay: Antitubercular activity against Mycobacterium avium after 14 days by two fold agar dilution method; format: functional; details: 336 h
[33] = test system: Mycobacterium tuberculosis; assay: Potency index, ratio of MIC for rifampicin to MIC for test compound for antitubercular activity against rifampicin-sensitive Mycobacterium tuberculosis after 21 days by two fold agar dilution method; format: functional
[34] = test system: Mycobacterium avium; assay: Potency index, ratio of MIC for isoniazid to MIC for test compound for antitubercular activity against Mycobacterium avium after 14 days by two fold agar dilution method; format: functional
[35] = test system: Mycobacterium tuberculosis; assay: Potency index, ratio of MIC for isoniazid to MIC for test compound for antitubercular activity against rifampicin-sensitive Mycobacterium tuberculosis after 21 days by two fold agar dilution method; format: functional
[36] = test system: Mycobacterium avium; assay: Potency index, ratio of MIC for LVFX to MIC for test compound for antitubercular activity against Mycobacterium avium after 14 days by two fold agar dilution method; format: functional
[37] = test system: Mycobacterium avium; assay: Potency index, ratio of MIC for rifampicin to MIC for test compound for antitubercular activity against Mycobacterium avium after 14 days by two fold agar dilution method; format: functional
[38] = test system: Mycobacterium tuberculosis; assay: Antitubercular activity against rifampicin-sensitive Mycobacterium tuberculosis after 21 days by two fold agar dilution method; format: functional; details: 504 h
[39] = test system: Mycobacterium intracellulare; assay: Potency index, ratio of MIC for isoniazid to MIC for test compound for antitubercular activity against Mycobacterium intracellulare after 14 days by two fold agar dilution method; format: functional
[40] = test system: Mycobacterium intracellulare; assay: Potency index, ratio of MIC for LVFX to MIC for test compound for antitubercular activity against Mycobacterium intracellulare after 14 days by two fold agar dilution method; format: functional
[41] = test system: Mycobacterium tuberculosis; assay: Antitubercular activity against Mycobacterium tuberculosis H37Rv ATCC 27294 assessed as growth inhibition at 6.25 ug/ml by broth dilution assay relative to control; format: functional; details: read-out: GI
[42] = test system: Mycobacterium tuberculosis; assay: Potency index, ratio of MIC for perfloxacin to MIC for test compound for antitubercular activity against Mycobacterium tuberculosis H37Rv by serial dilution assay; format: functional
[43] = test system: Mycobacterium tuberculosis; assay: Antitubercular activity against Mycobacterium tuberculosis H37Rv ATCC 27294 by Alamar Blue assay; format: functional

NNC(=O)c1ccncc1 [ISONIAZID]
MIC [1]: 0.05 µg/mL (≈ 0.365 µM) | MIC [2]: 1.5 µg/mL (≈ 10.9 µM) | MIC [3]: 12.5 µg/mL (≈ 91.1 µM) | CC50 at 72 h [4]: 32 µg/mL (≈ 233 µM) | MIC [5]: 12.5 µg/mL (≈ 91.1 µM) | MIC [6]: 12.5 µg/mL (≈ 91.1 µM) | MIC [7]: 12.5 µg/mL (≈ 91.1 µM)

COc1ccc2cc(C(=O)CN3CCN(c4c(F)cc5c(=O)c(C(=O)O)cn(C6CC6)c5c4OC)CC3)c(=O)oc2c1
MIC [8]: 0.25 µg/mL (≈ 0.433 µM) | Ratio [9]: 2 - 8 | Ratio [10]: 2 - 8 | Ratio [11]: 2 - 8 | Ratio [12]: 2 - 8

Cn1cc(C(=O)O)c(=O)c2cc(F)c(N3CCN(c4nnc(SCC(=O)c5ccc([N+](=O)[O-])cc5)s4)CC3)cc21
MIC [2]: 0.5 µg/mL (≈ 0.855 µM) | CC50 at 96 h [13]: > 6.1 µg/mL | selectivity ratio [14]: > 12.2 | MIC [15]: 0.5 to 1 µg/mL (≈ 0.855 to 1.71 µM) | MIC [16]: 0.5 to 1 µg/mL (≈ 0.855 to 1.71 µM) | MIC [17]: 0.5 to 1 µg/mL (≈ 0.855 to 1.71 µM)

CC1(CN)CCN(c2cc3c(cc2F)c(=O)c(C(=O)O)cn3C2CC2)C1 (stereo not drawn)
Ratio [18]: >=2 | MIC [19]: ≤ 0.03 µg/mL | Ratio [20]: >=2 | MIC [21]: 0.06 µg/mL (≈ 0.167 µM)

COc1c(N2C[C@@H]3CCCN[C@@H]3C2)c(F)cc2c(=O)c(C(=O)O)cn(C3CC3)c12 [MOXIFLOXACIN]
MIC [22]: 0.1 µg/mL (≈ 0.249 µM) | MIC [23]: 9.19 µg/mL (≈ 22.9 µM)

CO[C@H]1/C=C/O[C@@]2(C)Oc3c(C)c(O)c4c(O)c(c(/C=N/N5CCN(C)CC5)c(O)c4c3C2=O)NC(=O)/C(C)=C\C=C\[C@H](C)[C@H](O)[C@@H](C)[C@@H](O)[C@@H](C)[C@H](OC(C)=O)[C@@H]1C [RIFAMPIN]
MIC [1]: 0.39 µg/mL (≈ 0.474 µM) | MIC [2]: 1 µg/mL (≈ 1.22 µM) | CC50 at 72 h [4]: 7.8 µg/mL (≈ 9.48 µM)

O=C(O)c1cn(-c2ccc(F)cc2)c2cc(N3CCNCC3)c(F)cc2c1=O [SARAFLOXACIN]
MIC [24]: 6.25 µg/mL (≈ 16.2 µM)

CCn1cc(C(=O)N/N=C/c2c(Cl)cccc2Cl)c(=O)c2cc(F)c(N3CCN(C)CC3)cc21
MIC [25]: 27 µM (≈ 13.6 µg/mL)

CCn1cc(C(=O)O)c(=O)c2cc(F)c(N3CCN(C)CC3)cc21 [PEFLOXACIN]
MIC [26]: 4 µg/mL (≈ 12 µM)

Cc1c(N2CCC(=CO)CC2)c(F)cc2c(=O)c(C(=O)O)cn(C3CC3)c12
MIC [22]: 0.1 µg/mL (≈ 0.269 µM) | MIC [23]: 2.95 µg/mL (≈ 7.92 µM) | Ratio [27]: 3.1

C[C@H]1COc2c(N3C[C@H]4CCCN[C@H]4C3)c(F)cc3c(=O)c(C(=O)O)cn1c23
Ratio [28]: >=6.5 - 165 | MIC [29]: 0.2 to 1.7 µg/mL (≈ 0.516 to 4.39 µM) | Ratio [30]: 3.2 - 64.2 | Ratio [31]: 1.9 - 8.2 | MIC [32]: 0.2 to 1.7 µg/mL (≈ 0.516 to 4.39 µM) | Ratio [33]: >=6.5 - 165 | Ratio [34]: 3.2 - 64.2 | Ratio [35]: >=6.5 - 165 | Ratio [36]: 3.2 - 64.2 | Ratio [37]: 3.2 - 64.2 | MIC [38]: 0.2 to 1.7 µg/mL (≈ 0.516 to 4.39 µM) | Ratio [39]: 1.9 - 8.2 | Ratio [40]: 1.9 - 8.2

CC1COc2c(N3CCN(C)CC3)c(F)cc3c(=O)c(C(=O)O)cn1c23 (stereo not drawn) [OFLOXACIN]
inhibition of growth at 6.25 µg/mL [41]: 62 to 96%

O=C(O)c1cn(C2CC2)c2cc(N3CCNCC3)c(F)cc2c1=O [CIPROFLOXACIN]
MIC [15]: 1 to 2 µg/mL (≈ 3.02 to 6.04 µM) | MIC [16]: 1 to 2 µg/mL (≈ 3.02 to 6.04 µM) | MIC [17]: 1 to 2 µg/mL (≈ 3.02 to 6.04 µM)

CCn1cc(C(=O)N/N=C/c2cccc(O)c2)c(=O)c2cc(F)c(N3CCN(C)CC3)cc21
MIC [25]: 27.2 µM (≈ 12.3 µg/mL)

CCn1cc(C(=O)N/N=C2\C(=O)N(Cc3ccccc3)c3ccccc32)c(=O)c2ccc(C)nc21
MIC [3]: 0.625 µg/mL (≈ 1.34 µM) | MIC [5]: 0.625 µg/mL (≈ 1.34 µM) | MIC [6]: 0.625 µg/mL (≈ 1.34 µM) | MIC [7]: 0.625 µg/mL (≈ 1.34 µM)

O=C(O)c1cn(-c2ccc(O)cc2)c2cc(N3CCNCC3)c(F)cc2c1=O
MIC [24]: 6.25 µg/mL (≈ 16.3 µM)

C[C@@H]1CN(c2c(F)c(N)c3c(=O)c(C(=O)O)cn(C4CC4)c3c2F)C[C@H](C)N1 [SPARFLOXACIN]
MIC [19]: 0.06 µg/mL (≈ 0.153 µM) | MIC [21]: 0.13 µg/mL (≈ 0.331 µM)

CCn1cc(C(=O)O)c(=O)c2cc(F)c(OCCOCCOCCOCCOCCOc3cc4c(cc3F)c(=O)c(C(=O)O)cn4CC)cc21
MIC [26]: 0.8 µg/mL (≈ 1.14 µM) | Ratio [42]: 5

CC1COc2c(N3CCN(S(=O)(=O)c4ccc([N+](=O)[O-])cc4)CC3)c(F)cc3c(=O)c(C(=O)O)cn1c23 (stereo not drawn)
MIC [43]: 2.23 µg/mL (≈ 4.19 µM) | CC50 at 72 h [4]: > 33 µg/mL | inhibition of growth at 6.25 µg/mL [41]: 99%
